Square brackets hold non-standard residues; d marks the D form. Peptide text beside a SMILES is read from it. * marks the point of attachment. Nva = CCC[C@H](N)C(=O)O; Cbz = O=C(OCc1ccccc1)*

Test [1] relates to HUE cells. The test can be described thus: DNA fragmentation assay. Type of test: cell-based, human. The conditions noted are these: 250 µM caspase inhibitor 1 h before 10 µM PSI, 18 h. Here is the method: • a. Analysis of PSI-induced DNA fragmentation by agarose gel electrophoresis. […] Neither caspase inhibitor (Ac-YVAD-CHO 250 µM, lane 4; Ac-DEVD-CHO 250 µM, lane 5) nor DMSO (lane 6) induced the characteristic pattern of DNA fragmentation. M1 and M2: DNA size markers (kb). • b. Immunoblot analysis of HUE cell lysates after incubation with PSI. […] Equal loading was controlled by using an antibody directed against GAPDH enzyme.
HUE cells which had been plated at 20000 cells/cm^2 24 hours before the assay, were treated with 250 µM of the caspase inhibitors Ac-YVAD-CHO or Ac-DEVO-CHO (Peptide Institute, Osaka, Japan) or the equivalent volume of dimethylsulfoxide (DMSO) for 1 h prior to additon of the proteasomal inhibitors. Incubation of the cells was continued for a further 18 h and the extent of DNA fragmentation was analyzed as previously described with some minor modifications (Hockenberry et al., Nature 348 (1990), 334 - 336). Briefly, both the floating cells and the adherent cells which were detached by trypsinization, were lysed in a solution containing 0.5% Triton X100, 10 mM EDTA and 10 mM Tris-HCL pH 7.5 for 30 min on ice. To separate the intact chromatin from the oligonucleosomal fragments, the lysate was centrifuged at 13000 g for 10 min at 4°C and the resulting supernatant was sequentially extracted with phenol followed by phenol/chloroform/iso-amylalcohol (25:24:1; v/v/v). Low molecular weight DNA was precipitated by the addition of 0.5 vol 7 M ammonium acetate and 2.5 vol ice-cold ethanol. The precipitate was washed in 75% ethanol, dissolved in TE-buffer, containing RNase A (20 µg/ml; Boehringer Mannheim), incubated for 30 min at 37°C and subjected to electrophoresis on 1.5% agarose gels.

The target of test [2] is T1, chymotrypic activity of the proteasome (Bos taurus, UniProt Q32KL2).
T1 construct: endogenous in cells; host or cells: primary bovine aortic endothelial cells (BAE), total lysate after 15-16 h treatment of the cells
T1 sequence (Q32KL2 60-263): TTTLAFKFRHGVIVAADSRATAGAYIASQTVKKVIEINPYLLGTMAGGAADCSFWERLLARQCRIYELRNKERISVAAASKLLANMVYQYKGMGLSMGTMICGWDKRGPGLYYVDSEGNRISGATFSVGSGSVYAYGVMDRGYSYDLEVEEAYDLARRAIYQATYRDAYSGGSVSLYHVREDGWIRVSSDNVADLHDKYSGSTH
The test can be described thus: Proteasomal activity in lysates of treated BAE cells, substrate Suc-LLVY-AMC. Type of test: cell-based, bovine. The settings on record: total cell lysates after 15 h incubation of BAECs with 50 µM inhibitor. Here is the method:
(§1) Lysates prepared from BAE cells incubated for 15 hours with 50 µM of the indicated inhibitors were assayed for their ability to suppress proteasomal function by using Suc-LLVY-AMC as substrate for the chymotryptic activity (a) and Z-LLE-AMC as substrate for the post acidic residue cleaving activity (b). Activities are expressed as the relative fluorescence measured after 45 min of incubation with the substrates and reflect the mean of two independent experiments each performed in duplicate.
(§2) DMSO at a final concentration of 0.1% served as a vehicle-only control. Floating and adherent cells were harvested, lysed by sonication in ice-cold solution of 20 mM Tris-HCI pH 7.5, containing 20% glycerol, centrifuged in a benchtop centrifuge (10 min, 2000 g). […] A total of 15 µg of protein in a volume of 200 µl lysis buffer supplemented with 5 mM CaCl2 was assayed for chymotryptic and peptidyl-glutamyl-hydrolyzing activity in the presence of 10 µM Suc-Leu-Leu-Val-Tyr-AMC (Bachem, Heidelberg, Germany) and 10 µM Z-Leu-Leu-Glu-AMC (Peptide Institute, Osaka, Japan) respectively.

The subject of test [3] is subconfluent primary BAE cells. The experiment in a line: Apoptotic morphology (phase contrast, Hoechst 33342), BAE cells. In kind it is cell-based, bovine. The settings on record: for morphological changes associated with programmed cell death: subconfluent BAE cells, 50 µM for 15 - 24 h, or 10 µM after 48 hours.
Test [4] addresses calpain. The conditions noted are these: cited from earlier work.
Test [5] addresses cathepsin B (Homo sapiens, UniProt P07858). The settings on record: cited from earlier work.
Test [6] has as its system BAE cells. The experiment in a line: Viability assay (MIT assay), BAE cells. Type of test: cell-based, bovine. The settings on record: for EC50: Bos taurus.
In test [7] the test system is HUE cells. The test can be described thus: Viability assay (MIT assay), HUE cells. In kind it is cell-based, human. The conditions noted are these: for EC50: Homo sapiens, 48 h, 48 h incubation.
The subject of test [8] is MDCK epithelial cells. The test can be described thus: Viability assay (MIT assay), MDCK cells. In kind it is cell-based, canine. The settings on record: for EC50: Canis lupus familiaris, 48 h, 48 h incubation. Here is the method:
The indicated values are expressed as the percentage of absorbance at 570 nm relative to the absorbance obtained by DMSO treated (control) cells.
Madin Darby canine kidney epithelial cells (MDCK; ATCC CLL-34) were grown in Dulbecco's Modified Eagle's Medium (DMEM) containing 10% FCS, penicillin and streptomycin.
Briefly, the cells were plated either at 3000 cells/well (low density) or 30000 cells/well (high density) onto 96 well plates and grown over night. […] The formazan cystals generated were subsequently dissolved in DMSO and absorption measured at 570 - 650 nm.

The target of test [9] is T2, peptidyl-glutamyl hydrolyzing activity of the proteasome (Bos taurus, UniProt Q3MHN0).
T2 construct: endogenous in cells; host or cells: primary bovine aortic endothelial cells (BAE), total lysate after 15-16 h treatment of the cells
T2 sequence (Q3MHN0 1-239): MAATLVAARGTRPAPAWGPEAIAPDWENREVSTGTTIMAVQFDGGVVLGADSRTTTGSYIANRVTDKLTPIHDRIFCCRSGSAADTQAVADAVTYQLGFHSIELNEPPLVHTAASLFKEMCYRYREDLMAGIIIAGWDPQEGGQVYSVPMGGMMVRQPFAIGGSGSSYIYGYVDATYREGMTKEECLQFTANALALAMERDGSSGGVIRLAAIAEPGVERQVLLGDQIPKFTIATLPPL
The test can be described thus: Proteasomal activity in lysates of treated BAE cells, substrate Z-LLE-AMC. The conditions noted are these: total cell lysates after 15 h incubation of BAECs with 50 µM inhibitor. In kind it is cell-based, bovine. Here is the method:
as §1, §2

Test [10] concerns chorioallantoic membrane (CAM). The test can be described thus: Chorioallantoic membrane (CAM) assay. Type of test: in vivo, chick embryo. As to the method: All experiments with chick embryos were performed in ovo. After aspiration of 2 ml of eggwhite from the pointed side of the egg, a window was cut into the eggshell on embryonic day 3 or 4 (E3, E4). The eggs were resealed with tape and further incubated until E9. […] Approximately 1 cm^2-pieces of the CAM were then cut out, washed in PBS and fixed in Carnoy's solution. After dehydration and embedding in paraffin, 8 µm sections were cut and stained with an anti-BrdU mouse monoclonal antibody (Boehringer Mannheim, Germany) according to the manufacturer's instructions. Counterstaining of the sections was performed with Gill's hematoxylin (Serva, Heidelberg, Germany). Sections were mounted using Aquamount (Merck, Darmstadt, Germany) and photos were taken with a Zeiss Axiophot microscope. […] Control pellets were prepared with an equal amount of Leupeptin or with DMSO as vehicle, respectively. To aid in the visualization of the vascular system, embryos and CAMs were then injected using pulled glass capillaries with 10% Luconyl Blue (BASF, Ludwigshafen, Germany) in PBS, and photographs were taken using a stereomicroscope with camera adapter.
In eight eggs the windows of the egg shells were enlarged under an operation microscope. After a peripheral incision in the CAM was made, the main artery was incised with a pair of ocular scissors, and a glass capillary (World Precision Instruments, Inc. Germany) pulled to the adequate diameter, was inserted and sealed with a drop of cyanoacrylate (Loctite®). Efflux was enabled by making another incision into a main draining vessel. The vascular system was flushed with up to 5 ml of prewarmed (37 -39°C) physiological saline (0.9% NaCI) under mechanically controlled pressure. […] After complete polymerization of the casting solution, the membranes were dissected and macerated in a solution of 5% potassium hydroxide (Fluka, Neu-Ulm, Germany) at 40°C for 1 - 2 days. The resulting corrosion casts of all specimens were freeze dried, mounted and sputter coated. Examination of the microvascular corrosion casts were carried out with a Stereoscan Mk-250 scanning electron microscope (Cambridge, England). Alternatively, in situ fixed CAM segments were cut out, processed for semi-thin sectioning and stained with methylene blue and Azur II. Selected specimens were trimmed for ultrathin sectioning, and counterstained with uranyl acetate and lead citrate.

[11] abbreviates: EC50 confluent versus subconfluent, 2880 min.
The mark [12] stands for this setting: sub (low density, subconfluent).

Regarding `CC(=O)N[C@@H](CC(=O)O)C(=O)N[C@@H](CCC(=O)O)C(=O)N[C@H](C(=O)N[C@H](C=O)CC(=O)O)C(C)C` [Ac-DEVD-CHO], the “blocking of PSI-induced morphological changes and DNA fragmentation” value in [1] is “blocked”.

On to `CC(=O)N[C@@H](Cc1ccc(O)cc1)C(=O)N[C@H](C(=O)N[C@@H](C)C(=O)N[C@H](C=O)CC(=O)O)C(C)C` [Ac-YVAD-CHO], for which the “blocking of PSI-induced morphological changes and DNA fragmentation” value in test [1] was “unable to inhibit the action of PSI”.

With `CC(C)C[C@H](NC(=O)[C@H]1O[C@@H]1C(=O)O)C(=O)NCCCCN=C(N)N` [E64], the “cleavage of Suc-Leu-Leu-Val-Tyr-AMC” value in test [2] was “not”.

Take `CC(C)C[C@@H](C=O)NC(=O)[C@H](CC(C)C)NC(=O)[C@H](CC(C)C)NC(=O)OCc1ccccc1` [LLL] (Cbz-Leu-Leu-Leu-aldehyde): in test [3], the “morphological changes associated with programmed cell death” value is “had the same effect”.

One may read the Ki as the dissociation constant of the complex between target and ligand, obtained from inhibition or displacement. As to `CSCC[C@@H](C=O)NC(=O)[C@H](CC(C)C)NC(=O)[C@H](CC(C)C)NC(C)=O` [LLnM] (Ac-Leu-Leu-Met-aldehyde), in test [2], the “cleavage of Suc-Leu-Leu-Val-Tyr-AMC” value is on record as “not”. The “changes in cellular morphology or viability” value in test [3] (cultured BAE cells) was “did not induce any changes”. Also, the inhibition constant Ki in test [4] is 9 nM; in [5], 12 nM.

For orientation: EC50 means the concentration needed to bring the measured effect to its halfway point. On to `CCC[C@@H](C=O)NC(=O)[C@H](CC(C)C)NC(=O)[C@H](CC(C)C)NC(=O)OCc1ccccc1` [LLnV] (Cbz-Leu-Leu-[Nva]-aldehyde), for which the x difference turned out to be 6.8 fold in test [6] (BAE, EC50 confluent versus subconfluent, 2880 min); 8.1 fold in [7] (setting [11]); 15.1 fold in test [8] (setting [11]). The EC50 amounted to 2720 nM in test [6] (96 h, BAE cells seeded at high density, grown to confluency for 4 days); 2720 nM in test [6] (BAE, con (grown to confluency for 4 days), 48 h incubation); 402 nM in test [6] (BAE, sub (low density, subconfluent), 48 h incubation, viability reduced to 50% of DMSO control); 2500 nM in test [7] (con (grown to confluency)); 310 nM in [7] (setting [12]); 2950 nM in test [8] (con (confluent)). In addition, a half-maximal response in [8] (setting [12]) (EC50) required 196 nM. Besides, the “cleavage of Suc-Leu-Leu-Val-Tyr-AMC” value in [2] is “clearly reduced”. Further, the “total cellular peptidyl-glutamyl hydrolyzing activity (Z-Leu-Leu-Glu-AMC)” value in test [9] was “similarly reduced”. The “morphological changes associated with programmed cell death” value in test [3] was “had the same effect”.

Turning to `CC(=O)N[C@@H](CC(C)C)C(=O)N[C@@H](CC(C)C)C(=O)N[C@H](C=O)CCCNC(=N)N` [Leupeptin], in test [10] (3.1 µg/disc, methylcellulose disc on CAM for 48 h, Luconyl Blue injection, positive/total CAMs in parenthesis), the “%CAMs with non-perfused areas” value is on record as 0 (0/26) %. For the same molecule, the “vascular patterning or perfusion efficacy in the CAM” value in test [10] (same amount as PSI (3.1 µg/disc)) was “did not elicit any significant changes”. Also, the “cleavage of Suc-Leu-Leu-Val-Tyr-AMC” value in test [2] was “not”.

Source of the values: EP1053750A1, “Use of proteasome-inhibitor for the induction of programmed cell death (apoptosis)” (Max-Planck-Gesellschaft zur Förderung der Wissenschaften …, priority 1999, dated 2000).
